Results on six compounds are retold here after patent US8791159B2, “Compound capable of binding S1P receptor and pharmaceutical use thereof” (Ono Pharmaceutical Co., Ltd., priority 2003, dated 2014).

What is called melting point is the temperature of the solid-liquid transition. As a reminder, the Ki is the dissociation constant of the complex between target and ligand, obtained from inhibition or displacement. Low readings indicate a stronger hold on the target, high ones a looser hold on the target. For orientation: EC50 means the midpoint of the concentration-response curve.

The target of one data set is T1, EDG-6 (Homo sapiens, UniProt O95977).
T1 construct: expressed in transfected cells; host or cells: EDG-6-overexpressing cells
T1 sequence (O95977 1-384): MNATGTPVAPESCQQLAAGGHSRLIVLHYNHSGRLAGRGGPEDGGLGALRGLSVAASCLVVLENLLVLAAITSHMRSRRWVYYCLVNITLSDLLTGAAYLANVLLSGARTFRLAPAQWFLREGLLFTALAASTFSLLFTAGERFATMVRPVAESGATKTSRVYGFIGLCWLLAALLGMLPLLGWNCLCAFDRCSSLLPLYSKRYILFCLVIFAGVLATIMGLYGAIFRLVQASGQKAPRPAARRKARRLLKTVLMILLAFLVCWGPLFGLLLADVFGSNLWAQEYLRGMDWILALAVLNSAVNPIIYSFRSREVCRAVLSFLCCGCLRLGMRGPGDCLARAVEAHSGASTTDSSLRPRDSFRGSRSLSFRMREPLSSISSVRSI
As to the kind of experiment: Inhibitory activity on binding of [3H]-S1P to EDG-6 (EDG-6-overexpressing cells). As to conditions: competitive binding test, 5 nM D-erythro-sphingosine-3-[3H]-1-phosphate, 60 minutes on ice. The method, then:
Firstly, EDG-6-overexpressing cells were seeded at a density of 2×10^5 cells/well into a 12-well plate. After 12 hours, the cells were washed with 0.5 mL of an assay buffer twice. In a saturation binding test for determining the KD value and the Bmax value, the cells were incubated in 0.4 mL of an assay buffer containing D-erythro-sphingosine-3-[^3H]-1-phosphate at various concentrations and 2 μL of 0.01 N NaOH for 60 minutes on ice. Then, the wells were washed with 0.8 mL of the assay buffer twice and the whole cells were disrupted by adding 0.1 mL of 0.5% TCA (trichloroacetic acid), 0.4 mL of a lysis buffer (2% Na2CO3, 4% NaOH, 0.1% SDS) and 0.1 mL of 1 N hydrochloric acid. Then, 0.5 mL of the lysed solution was collected in a glass vial (Packard) with a pipette. After adding 7 mL of ACSII (Amersham), the mixture was thoroughly stirred and the radioactivity was measured with a liquid scintillation counter (TRI-CARB 2900TR Packard), thereby determining the KD value. The value of the nonspecific binding was determined by adding unlabeled S1P at a final concentration of 25 μM as a substitute for 0.01 N NaOH. […] The subsequent procedures following washing were carried out as in the saturation binding test and the radioactivity was measured as described above.

A further data set deals with lymphocyte in blood. As to the kind of experiment: Counting the number of lymphocyte in blood (1). Type of data set: in vivo, male Sprague-Dawley rats. Particulars: oral, 10, 30 and 100 mg/kg, 4 hours after the administration, rat. The procedure:
Test compounds were orally administered to male Sprague-Dawley rats (Charles Riber Laboratories, Japan, Ltd., 6-week-old at using). Four to 72 hours after the administration, the blood was collected from the aorta abdominalis under ether anesthesia. Using a portion of the thus collected blood, the number of blood cells were counted and the number of lymphocyte, neutrophil and platelet were counted. Each group had 4 or 5 animals.

The target in a further data set is Human EDG-1 (Homo sapiens, UniProt P21453). Put plainly: Agonistic activity against EDG by monitoring intracellular calcium ion concentration [Ca2+]i. Particulars: human EDG-1 overexpressing CHO cells, increase ratio of [Ca2+]i. Type of data set: cell-based. The method, then:
Human EDG-1, EDG-3, EDG-5 or EDG-8 gene overexpressing Chinese Hamster Ovary (CHO) cells were cultured in Ham's F12 medium (manufactured by GIBCO BRL) containing 10% FBS (fetal bovine serum), penicillin/streptomycin and blasticidin (5 μg/ml). The cultured cells were incubated in a 5 μM Fura2-AM solution (Ham's F12 medium containing 10% of FBS, 20 mM HEPES buffer (pH7.4) and 2.5 mM probenecid) at 37° C. for 60 minutes. After washing once with Hanks solution containing […] buffer (pH7.4) and 2.5 mM probenecid, the plate was soaked in the same solution until assay. Then, the plate was set on a fluorescent drug screening system (FDSS 6000; Hamamatsu Photonics) and the intracellular calcium ion concentration was measured without stimulation for 30 seconds. A test compound (final concentration: 1 nM to 10 μM, dimethylsulfoxide (DMSO) solution) was added and S1P (final concentration: 100 nM) was added 5 minutes thereafter. Then, the increase in the intracellular calcium ion concentration was measured before and after the addition of S1P at intervals of 3 seconds (excitation wavelength: 340 nm and 380 nm, fluorescence wavelength: 500 nm). […]
(In general: A change in cytosolic calcium serves as a functional read-out for many receptors and channels.)

For data set [1] the following is noted: cited from earlier work.
The conditions of data set [2]: after administration; cited from earlier work.
A further data set deals with S1P receptor. Particulars: cited from earlier work.

Human EDG-1, sequence (P21453 whole entry): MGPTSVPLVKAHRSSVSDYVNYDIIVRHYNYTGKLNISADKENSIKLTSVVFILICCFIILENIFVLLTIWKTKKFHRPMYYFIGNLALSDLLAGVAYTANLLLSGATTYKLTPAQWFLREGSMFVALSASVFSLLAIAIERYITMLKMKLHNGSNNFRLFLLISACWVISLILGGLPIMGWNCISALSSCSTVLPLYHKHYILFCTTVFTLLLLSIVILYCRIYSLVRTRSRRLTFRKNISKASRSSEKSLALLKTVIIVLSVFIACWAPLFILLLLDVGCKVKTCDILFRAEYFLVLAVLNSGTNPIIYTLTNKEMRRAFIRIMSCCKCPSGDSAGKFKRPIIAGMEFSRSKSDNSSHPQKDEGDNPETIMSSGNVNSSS

In turn, `CC1=C(CNCCC(=O)O)CCc2cc(OCCCCc3ccccc3)ccc21.Cl` showed a melting point of 162.5 to 163.3 °C.

In turn, `CC1=C(CN2CC(C(=O)O)C2)CCc2cc(OCCC(c3ccccc3)c3ccccc3)ccc21.Cl` yielded a melting point of 77 to 83 °C.

`CC1=C(CN2CC(C(=O)O)C2)CCc2cc(OCC(C)(C)Cc3ccccc3)ccc21.Cl` displayed a melting point of 124 to 127 °C.

Regarding `O=C(O)CCNCCCc1ccc(OCCCCCc2ccccc2)cc1` [3-[3-(4-(5-phenylpentyloxy)phenyl)propylamino]propanoic acid], the Ki at EDG-6 was 352 nM. The “number of lymphocyte in blood” value in the data set with lymphocyte in blood is reported as “concentration-dependently lowered the number of lymphocyte in blood”. Moreover, the EC50 on Human EDG-1 worked out at 255 nM.

As to `CCCCCCCCc1ccc(CCC(N)(CO)CO)cc1.Cl` [FTY720, 2-amino-2-[2-(4-octylphenyl)ethyl]-1,3-propanediol hydrochloride], the “incidence rate of acute rejection” value in data set [1] (human kidney transplantation) was “significantly lowering the incidence rate of acute rejection”. Also, in data set [1] (human, in vivo), the “lymphocyte count in the peripheral blood” value is “reducing the lymphocyte count in the peripheral blood”. Besides, in data set [2], the “side effect (bradycardia)” value is given as “causing bradycardia after administration”.

As for `CCCCCCCCc1ccc(CCC(N)(CO)COP(=O)(O)O)cc1` (stereo not shown) [phosphorylated FTY720], the “binding to S1P receptor subtypes” value in the data set with S1P receptor is “binds to multiple subtypes of the S1P receptors, i.e., EDG-1, EDG-3, EDG-6 and EDG-8”.
